The source of these data is PubChem BioAssay (NCI).

Some test systems named below: ACHN renal; HCC-2998 colon; CAKI-1 renal; A549 NSCLC; RXF 393 renal; M14 melanoma; SW-620 colon; MCF7 breast; NCI/ADR-RES ovarian; MDA-MB-231 breast; BT-549 breast.
Assay in all cases: NCI tumour cell line growth inhibition, 48 h

Each structure is given as a SMILES string.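 Tested at 5 concentrations; 48 h exposure; 96-well plates; endpoints linearly interpolated, else capped at highest concentration. GI50 = concentration required for 50% inhibition of growth. Definition used: TGI = concentration required for complete inhibition of growth.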

For the compound `COC(=O)CCC(NC(=O)OC(C)(C)C)C(=O)NC(Cc1ccc(NC(=O)CCCC(C)=O)cc1)C(=O)NC(CCC(=O)OC)C(=O)OC` (centres undefined), the TGI in the experiment on ACHN renal, with HCC-2998 colon, with CAKI-1 renal, in the experiment with A549 NSCLC, with RXF 393 renal and in the experiment on M14 melanoma was more than 100 µM throughout. Moreover, the TGI with SW-620 colon, in the experiment on MCF7 breast, in the experiment with NCI/ADR-RES ovarian and in the experiment with MDA-MB-231 breast was more than 100 µM in each case.
Consider `CNC1(C(=O)O)CC1`, for which the TGI in the experiment with ACHN renal, with HCC-2998 colon, with A549 NSCLC, with RXF 393 renal, in the experiment with M14 melanoma and with SW-620 colon was more than 100 µM each time. Also, the TGI in the experiment on MCF7 breast, in the experiment on NCI/ADR-RES ovarian and with MDA-MB-231 breast was more than 100 µM each time.
With `COc1cc2c(cc1OC)[C@@H](Nc1ccc(F)cc1)C1COC(=O)[C@@H]1C2c1cc(OC)c(O)c(OC)c1` (some centres undefined), the TGI turned out to be 2.49 µM in the experiment with ACHN renal; 9.9 µM in the experiment on HCC-2998 colon; 3.76 µM in the experiment with CAKI-1 renal; 15 µM with A549 NSCLC; 71.8 µM with RXF 393 renal; 10.5 µM in the experiment with M14 melanoma. For the same compound, the TGI with SW-620 colon was more than 38.5 µM.
As for `CCN(CC)c1oc(N(CC)CC)c(C(=O)Nc2ccccn2)c(=O)c1C(C)=O`, the TGI in the experiment with ACHN renal, in the experiment with CAKI-1 renal, in the experiment on A549 NSCLC, in the experiment on M14 melanoma and in the experiment with SW-620 colon was more than 100 µM in each case.
For the compound `CCCCCCCCCCCCCCCCCCOCC(O)COP(=O)(O)OCC1OC(n2ccc(N)nc2=O)C(O)C1O` (centres undefined), the TGI in the experiment with ACHN renal is more than 100 µM; in the experiment on HCC-2998 colon, more than 100 µM; with CAKI-1 renal, 75 µM; in the experiment on A549 NSCLC, more than 100 µM; in the experiment with RXF 393 renal, 33.3 µM; in the experiment on SW-620 colon, more than 100 µM. In addition, the TGI in the experiment with MCF7 breast is more than 100 µM; in the experiment with NCI/ADR-RES ovarian it was more than 100 µM; in the experiment with MDA-MB-231 breast it was 64.7 µM.
Turning to `c1ccc(CSC2(SCc3ccccc3)CCCCC2)cc1`, the TGI with ACHN renal, in the experiment on HCC-2998 colon, in the experiment on CAKI-1 renal, in the experiment with A549 NSCLC, in the experiment with RXF 393 renal and in the experiment with M14 melanoma was more than 10 µM each time. For the same compound, the TGI with SW-620 colon, with MCF7 breast, in the experiment with NCI/ADR-RES ovarian and in the experiment with MDA-MB-231 breast was more than 10 µM each time.
Take `COc1ccc2nc3cc(Cl)ccc3c(SCC(=O)Nc3ccccc3-c3ccccc3NC(=O)CSc3c4ccc(Cl)cc4nc4ccc(OC)cc34)c2c1`: the TGI in the experiment with ACHN renal, in the experiment on HCC-2998 colon, with CAKI-1 renal, with A549 NSCLC, with RXF 393 renal and with M14 melanoma was more than 100 µM in each case. The compound further came in with a TGI in the experiment with SW-620 colon of more than 100 µM.
Turning to `c1ccc2c(c1)OC(N1CCCC1)c1cnc(N3CCOCC3)nc1-2` (centres undefined), the TGI was more than 100 µM with ACHN renal; more than 100 µM in the experiment with CAKI-1 renal; more than 100 µM with A549 NSCLC; 60.4 µM in the experiment on RXF 393 renal; more than 100 µM with M14 melanoma; more than 100 µM in the experiment with SW-620 colon. Further, the TGI was 72.8 µM with BT-549 breast, 38.2 µM with MCF7 breast and more than 100 µM in the experiment with MDA-MB-231 breast.
On to `Cc1ccc(Nc2nc3c(=O)n(C)c(=O)n(C)c3nc2Nc2ccc(C)cc2)cc1`, for which the TGI with ACHN renal is 11.8 µM; with HCC-2998 colon, 35.1 µM; in the experiment on CAKI-1 renal, 30.4 µM; in the experiment on A549 NSCLC, 52.9 µM; with RXF 393 renal, 23.2 µM; in the experiment with SW-620 colon, 4.04 µM. The results for the TGI in the experiment on NCI/ADR-RES ovarian and with MDA-MB-231 breast were 35.1 µM and 27.1 µM, respectively.
Regarding `CCOC(=O)C(Cl)(NC(=O)OCc1ccccc1)C(F)(F)F` (centres undefined), the TGI in the experiment with ACHN renal, in the experiment on HCC-2998 colon, in the experiment with CAKI-1 renal, in the experiment with A549 NSCLC, in the experiment with RXF 393 renal and with M14 melanoma was more than 100 µM in each case. Moreover, the TGI in the experiment with SW-620 colon, with MCF7 breast, in the experiment with NCI/ADR-RES ovarian and with MDA-MB-231 breast was more than 100 µM each time.
`Cc1cnc2[nH]c(-c3ccc4ccccc4c3)cc(=O)c2c1`: the TGI with ACHN renal, in the experiment with HCC-2998 colon, in the experiment on A549 NSCLC, in the experiment on M14 melanoma, with SW-620 colon and in the experiment on BT-549 breast was more than 100 µM in each case. The compound also yielded a TGI in the experiment with MCF7 breast of 8.68 µM.
`COc1ccccc1C1c2cc3c(cc2OC(N2CCOCC2)C1C)OCO3` (centres undefined): the TGI is more than 100 µM in the experiment with ACHN renal; 47.3 µM in the experiment on A549 NSCLC; 38.7 µM with M14 melanoma; 50.3 µM in the experiment on SW-620 colon; 81.5 µM with MCF7 breast; 61.6 µM in the experiment with NCI/ADR-RES ovarian.
As to `COC1=C(C)C(=O)c2c(cc3c(c2O)C(C)(CCC=C(C)C)C(C)O3)C1=O` (centres undefined), the TGI was more than 100 µM in the experiment on ACHN renal; more than 78.8 µM in the experiment with HCC-2998 colon; more than 100 µM in the experiment on CAKI-1 renal; 39.8 µM with A549 NSCLC; more than 100 µM in the experiment with RXF 393 renal; 55.7 µM in the experiment on M14 melanoma. Also, the TGI in the experiment with SW-620 colon was more than 100 µM.
`CC(=O)O[C@H]1CCC2[C@@H]3CCC4c5nonc5CC[C@]4(C)C3CC[C@@]21C` (some centres undefined): the GI50 in the experiment with ACHN renal was more than 10 µM; in the experiment with HCC-2998 colon it was more than 100 µM; in the experiment on SW-620 colon, more than 100 µM. For the same compound, the TGI was more than 100 µM in the experiment with ACHN renal; more than 100 µM in the experiment with HCC-2998 colon; more than 10 µM with CAKI-1 renal; more than 10 µM in the experiment with A549 NSCLC; more than 10 µM in the experiment on RXF 393 renal; more than 10 µM in the experiment with M14 melanoma. Besides, the TGI in the experiment on SW-620 colon is more than 100 µM.
Consider `O=C(c1ccccc1)N1C(=S)N(c2ccccn2)C(=Nc2ccccc2)C1=Nc1ccccc1`, for which the TGI is 35.3 µM with ACHN renal; more than 100 µM in the experiment on HCC-2998 colon; 43.8 µM in the experiment with CAKI-1 renal; more than 100 µM in the experiment with A549 NSCLC; 25.9 µM in the experiment on RXF 393 renal; more than 100 µM in the experiment on M14 melanoma. Besides, the TGI is more than 65.6 µM in the experiment on SW-620 colon, more than 100 µM with MCF7 breast, more than 48.3 µM with NCI/ADR-RES ovarian and more than 71.9 µM in the experiment with MDA-MB-231 breast.
